One test concerns HA-tagged PA from FluB. The test is described as follows: competitive ELISA, PB1 peptide / PA of FluB. The format is binding, influenza B virus. To be noted: competitor peptides 0.048 to 3000 nM; […]; standard deviation in parenthesis; * highest concentration used. (In general: ELISA stands for enzyme-linked immunosorbent assay.)
Test [1] addresses interaction between PB1 and PA (Influenza A virus, UniProt P03433). Description: biochemical. As to conditions: for IC50: calculated from inhibition at maximum obtainable concentration where solubility too low, read-out: IC50 [μM] (ELISA); for Active in ELISA: prescreening. It counts as binding.
Test [2] deals with influenza virus (A/WSN/33). Description: plaque reduction assay, influenza virus in MDCK cells. The format is cell-based. Background: In a plaque reduction assay, fewer plaques than in the control indicate reduced infectivity or spread.
In the next test the test system is RSV (Long strain). The test is described as follows: RSV induced cell death reduction in HEp-2 cells. As to conditions: for RSV activity, Maximum inhibition (in words): serial dilution 100 to 0.14 μM, 72 h; for IC50 / inhibition at 11 µM: human respiratory syncytial virus, HEp-2; for inhibition at 11 µM: read-out: RSV activity, Maximum inhibition. It counts as cell-based, respiratory syncytial virus.

The values that follow come from patent publication US20120122896A1, “2,1,3-BENZOXADIAZOL DERIVATIVES FOR THE INHIBITION OF INFLUENZA A AND B VIRUS AND RESPIRATORY SYNCYTIAL VIRUS REPLICATION” (PIKE PHARMA GMBH, priority 2009, published 2012).

Like-named read-outs stand apart in the source and are kept apart here.

The IC50 is the concentration that gives 50% inhibition. With MDVNPTLLFLKVPAQ [PB11-15 A], the IC50 with HA-tagged PA from FluB is above 3000 nM.

Take `O=[N+]([O-])c1ccc(S(=O)(=O)Cc2ccccc2)c2nonc12` [PKE108, 4-nitro-7-(phenylmethylsulfonyl)-2,1,3-benzoxadiazole]: in test [1], the IC50 was 500 µM and the “Active in ELISA” value was “Yes”. Moreover, the “inhibition of the replication of influenza virus, particularly influenza A (summary in words)” value in test [2] is on record as “effectively inhibited”. Also, the “RSV activity, Maximum inhibition (in words)” value in the test on RSV (Long strain) is “inactive”.

Regarding `Nc1nc(Sc2ccc([N+](=O)[O-])c3nonc23)c2ncn(C3OC(CO)C(O)C3O)c2n1` (stereo not shown) [PKE138, 2-[2-amino-6-[(4-nitro-2,1,3-benzoxadiazol-7-yl)sulfanyl]purin-9-yl]-5-(hydroxymethyl)oxolane-3,4-diol], in test [1], the IC50 is 250 µM and the “Active in ELISA” value is listed as “Yes”. Moreover, the “inhibition of the replication of influenza virus, particularly influenza A (summary in words)” value in test [2] is recorded as “effectively inhibited”. Further, the “RSV activity, Maximum inhibition (in words)” value in the test with RSV (Long strain) is “inactive”.

In general, inhibition refers to the relative decrease from the control value, in per cent. As for `O=[N+]([O-])c1c(NCc2ccccc2)ccc2nonc12` [PKE190, N-benzyl-4-nitro-2,1,3-benzoxadiazol-5-amine], in test [1], the IC50 was above 1000 µM and the “Active in ELISA” value is recorded as “Yes”. Moreover, the inhibition at 1000 µM in test [1] (highest concentration used, 1000 μM, read-out: Max. Inhibition (ELISA) at 1000 μM) stood at 37%. The “RSV activity, Maximum inhibition (in words)” value in the test with RSV (Long strain) is “inactive”.

`CCCCN1CCN(c2ccc([N+](=O)[O-])c3no[n+]([O-])c23)CC1` [PKE134, 7-(4-butylpiperazin-1-yl)-4-nitro-1-oxido-2,1,3-benzoxadiazol-1-ium]: the “Active in ELISA” value in test [1] is recorded as “No”. In addition, in the test on RSV (Long strain), the “RSV activity, Maximum inhibition (in words)” value is “inactive”.

With MDVNPYLLFLKVPAQ [PB11-15 AT5Y], the IC50 in the test on HA-tagged PA from FluB is 107 nM; in the test on HA-tagged PA of FluA (read-out: IC50 (nM) PA (FluA)), 21.6 nM.

Take MDVNPWLLFLKVPAQ [PB11-15 AT6W]: the IC50 stood at 628 nM with HA-tagged PA from FluB and 3.4 nM in the test with HA-tagged PA of FluA (read-out: IC50 (nM) PA (FluA)).

For `Cc1cccc(Nc2ccc([N+](=O)[O-])c3nonc23)c1` [PKE078, N4-(3-methylphenyl)-7-nitro-2,1,3-benzoxadiazol-4-amine], the “Active in ELISA” value in test [1] was “No”. In addition, in the test on RSV (Long strain), the “inhibition of RSV replication (summary in words)” value is reported as “effective”, the IC50 amounted to 6 µM and the inhibition at 11 µM is 56%.

Turning to `O=[N+]([O-])c1ccc(SCc2ccccc2)c2nonc12` [PKE107, 4-nitro-7-(phenylmethylsulfanyl)-2,1,3-benzoxadiazole], in test [1], the concentration for half-maximal inhibition (IC50) was 125 µM and the “Active in ELISA” value is reported as “Yes”. Moreover, the “inhibition of the replication of influenza virus, particularly influenza A (summary in words)” value in test [2] is listed as “effectively inhibited”. The “RSV activity, Maximum inhibition (in words)” value in the test with RSV (Long strain) was “inactive”.

Regarding `Nc1nc(Sc2ccc([N+](=O)[O-])c3nonc23)c2[nH]cnc2n1` [PKE110, 6-[(4-nitro-2,1,3-benzoxadiazol-7-yl)sulfanyl]-7H-purin-2-amine], the “Active in ELISA” value in test [1] is listed as “No”. The “RSV activity, Maximum inhibition (in words)” value in the test on RSV (Long strain) was “inactive”.

As for `O=[N+]([O-])c1ccc(Sc2ncnc3c2ncn3C2OC(CO)C(O)C2O)c2nonc12` (stereo not shown) [PKE137, 2-(hydroxymethyl)-5-[6-[(4-nitro-2,1,3-benzoxadiazol-7-yl)sulfanyl]purin-9-yl]oxolane-3,4-diol], in test [1], the IC50 was 200 µM and the “Active in ELISA” value was “Yes”. Further, the “inhibition of the replication of influenza virus, particularly influenza A (summary in words)” value in test [2] is “effectively inhibited”. Moreover, in the test with RSV (Long strain), the “RSV activity, Maximum inhibition (in words)” value is “inactive”.

For the compound MDVNPFLLFLKVPAQ [PB11-15 AT5F], the IC50 was 750 nM in the test with HA-tagged PA from FluB and 2.84 nM with HA-tagged PA of FluA (read-out: IC50 (nM) PA (FluA)).

On to MDVNPTLLFLK [Compound 1-11], for which, in the test on HA-tagged PA of FluA (read-out: IC50 (nM) of FluA-derived PB1 peptides (truncations)), the IC50 stood at 900 nM.

For the compound `O=[N+]([O-])c1ccc(N2CCN(Cc3ccccc3)CC2)c2c1no[n+]2[O-]` [PKE133, 4-nitro-1-oxido-7-[4-(phenylmethyl)piperazin-1-yl]-2,1,3-benzoxadiazol-1-ium], in test [1], the “Active in ELISA” value is “No”. Also, in the test on RSV (Long strain), the “RSV activity, Maximum inhibition (in words)” value is “inactive”.

For `O=[N+]([O-])c1ccc(Sc2ccc(F)cc2)c2nonc12` [PKE079, 4-[(4-fluorophenyl)thio]-7-nitro-2,1,3-benzoxadiazole], in test [1], the IC50 is 125 µM and the “Active in ELISA” value is given as “Yes”. Also, the “inhibition of the replication of influenza virus, particularly influenza A (summary in words)” value in test [2] is given as “effectively inhibited”. For the same compound, in the test on RSV (Long strain), the “inhibition of RSV replication (summary in words)” value is listed as “effective”, inhibition was half-maximal at 7 µM (IC50) and the inhibition at 11 µM worked out at 53%.

Take `CCN(CC)CCCNc1ccc([N+](=O)[O-])c2no[n+]([O-])c12` [PKE136, N,N-diethyl-N′-(4-nitro-1-oxido-2,1,3-benzoxadiazol-1-ium-7-yl)propane-1,3-diamine]: the “Active in ELISA” value in test [1] is “No”. Besides, the “RSV activity, Maximum inhibition (in words)” value in the test with RSV (Long strain) is “inactive”.
